This note sets out measurements from patent US20240124442A1, “TRICYCLIC-AMIDO-BICYCLIC PRMT5 INHIBITORS” (AMGEN INC., priority 2021, published 2024).

Test [1] relates to HCT116 WT cells. Nature of the test: HCT116 WT (parent) cell line proliferation / cell viability (CellTiter-Glo, 6 days). The note with it: Homo sapiens, HCT-116, 144 h, 6 days treatment. The test is classed as cell-based. In short, it runs like this: (§1)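 WT vs MTAP-null HCT116, 6 d drug, CTG readout. 1:3 × 8–9 pts (top 1/10 μM) or 1:2 × 22 pts (top 10/50 μM). IC50 by 4PL or Hill −1 fit.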
On the technique in general: In ATP-based viability assays light output follows the ATP content of the culture.

The test system of test [2] is HCT116 MTAP null cells. Nature of the test: HCT116 MTAP null cell line proliferation / cell viability (CellTiter-Glo, 6 days). Particulars: 144 h; HCT116 MTAP null cells, 6 days treatment, CellTiter-Glo cell viability; read-out: HCT-116 MTAP null IC50. It is filed as cell-based. In short, it runs like this:
as §1

As to `CN(C(=O)c1ccc2nc(N)c3cnn(C)c3c2c1)[C@@H]1COc2cc(-c3cnc(=O)[nH]c3)ccc21` [Example 637, 4-amino-N,1-dimethyl-N-((3S)-6-(2-oxo-1,2-dihydro-5-pyrimidinyl)-2,3-dihydro-1-benzofuran-3-yl)-1H-pyrazolo[4,3-c]quinoline-8-carboxamide], the IC50 was 32.1 µM in test [1] and 0.339 µM in test [2].
Taken in the same sequence, the figures for `CN(C(=O)c1ccc2nc(N)c3cnn(C)c3c2c1)[C@@H]1COc2cc(-c3ccc(F)nc3)ccc21` [Example 638, 4-amino-N-((3S)-6-(6-fluoro-3-pyridinyl)-2,3-dihydro-1-benzofuran-3-yl)-N,1-dimethyl-1H-pyrazolo[4,3-c]quinoline-8-carboxamide] were 0.591 µM and 0.006 µM.
Taken in the same sequence, the figures for `CCn1cc(-c2ccc3c(c2)OC[C@H]3N(C)C(=O)c2ccc3nc(N)c4cnn(C)c4c3c2)cn1` [Example 639, 4-amino-N-((3S)-6-(1-ethyl-1H-pyrazol-4-yl)-2,3-dihydro-1-benzofuran-3-yl)-N,1-dimethyl-1H-pyrazolo[4,3-c]quinoline-8-carboxamide] were 1.4 µM and 0.015 µM.
As for `CN(C(=O)c1ccc2nc(N)c3cnn(C)c3c2c1)[C@@H]1COc2cc(-c3cnn(C4CC4)c3)ccc21` [Example 640, 4-amino-N-((3S)-6-(1-cyclopropyl-1H-pyrazol-4-yl)-2,3-dihydro-1-benzofuran-3-yl)-N,1-dimethyl-1H-pyrazolo[4,3-c]quinoline-8-carboxamide], the 50% inhibitory concentration (IC50) worked out at 2.05 µM in test [1] and 0.016 µM in test [2].
Taken in the same sequence, the figures for `CN(C(=O)c1ccc2nc(N)c3cnn(C)c3c2c1)[C@@H]1COc2cc(-c3cc(F)cc(F)c3)ccc21` [Example 641, 4-amino-N-((3S)-6-(3,5-difluorophenyl)-2,3-dihydro-1-benzofuran-3-yl)-N,1-dimethyl-1H-pyrazolo[4,3-c]quinoline-8-carboxamide] were 1.6 µM and 0.042 µM.
Consider `CN(C(=O)c1ccc2nc(N)c3cnn(C)c3c2c1)[C@@H]1COc2cc(-c3ccc(F)nc3F)ccc21` [Example 642, 4-amino-N-((3S)-6-(2,6-difluoro-3-pyridinyl)-2,3-dihydro-1-benzofuran-3-yl)-N,1-dimethyl-1H-pyrazolo[4,3-c]quinoline-8-carboxamide], for which the IC50 in test [1] was 0.535 µM; in test [2], 0.005 µM.
In the case of `CN(C(=O)c1ccc2nc(N)c3cnn(C)c3c2c1)[C@@H]1COc2cc(-c3ccnc(F)c3F)ccc21` [Example 643, 4-amino-N-((3S)-6-(2,3-difluoro-4-pyridinyl)-2,3-dihydro-1-benzofuran-3-yl)-N,1-dimethyl-1H-pyrazolo[4,3-c]quinoline-8-carboxamide], the IC50 was determined as 0.228 µM in test [1] and 0.005 µM in test [2].
Taken in the same sequence, the figures for `CN(C(=O)c1ccc2nc(N)c3cnn(C)c3c2c1)[C@@H]1COc2cc(-c3cnc4c(c3)CC(=O)N4)ccc21` [Example 644, 4-amino-N,1-dimethyl-N-((3S)-6-(2-oxo-2,3-dihydro-1H-pyrrolo[2,3-b]pyridin-5-yl)-2,3-dihydro-1-benzofuran-3-yl)-1H-pyrazolo[4,3-c]quinoline-8-carboxamide] were 3.56 µM and 0.027 µM.
The corresponding values for `CN(C(=O)c1ccc2nc(N)c3cnn(C)c3c2c1)[C@@H]1COc2cc(-c3cc(C(F)(F)F)[nH]n3)ccc21` [Example 645, 4-amino-N,1-dimethyl-N-((3S)-6-(5-(trifluoromethyl)-1H-pyrazol-3-yl)-2,3-dihydro-1-benzofuran-3-yl)-1H-pyrazolo[4,3-c]quinoline-8-carboxamide] are 1.47 µM and 0.024 µM.
Taken in the same sequence, the figures for `CNC(=O)c1ccc(-c2ccc3c(c2)OC[C@H]3N(C)C(=O)c2ccc3nc(N)c4cnn(C)c4c3c2)cn1` [Example 646, 4-amino-N,1-dimethyl-N-((3S)-6-(6-(methylcarbamoyl)-3-pyridinyl)-2,3-dihydro-1-benzofuran-3-yl)-1H-pyrazolo[4,3-c]quinoline-8-carboxamide] were 0.329 µM and 0.003 µM.

Usually IC50 stands for the point on the concentration scale where inhibition reaches its midpoint.
